Measurements from ChEMBL document CHEMBL3046758, “Biological evaluation of novel 1,4-dithiine derivatives as potential antimicrobial agents” (Med Chem Res, 2011).
Converted amounts (≈) assume the structure as drawn.

What was measured:
[1] = Cytotoxicity against Homo sapiens (human) MT4 cells containing integrated HTLV-1 genome after 96 hr by MTT assay; type: cell-based
Candida albicans = experiment: Antifungal activity against Candida albicans DSM 1386 after 24 to 48 hr by broth microdilution method; type: functional
Pseudomonas aeruginosa = experiment: Antibacterial activity against Pseudomonas aeruginosa DSM 1117 after 16 to 20 hr by broth microdilution method; type: functional
Poliovirus 1 = experiment: Antiviral activity against Human poliovirus 1 strain Sabin infected African green monkey Vero76 cells assessed as reduction of virus-induced plaque reduction after 2 days by MTT assay; type: functional, organism-based; conditions: Enterovirus C, Vero 76, 48 h
Staphylococcus aureus = experiment: Antibacterial activity against Staphylococcus aureus DSM 2569 after 16 to 20 hr by broth microdilution method; type: functional
Vaccinia virus = experiment: Antiviral activity against Vaccinia virus infected African green monkey Vero76 cells assessed as reduction of virus-induced plaque reduction after 3 days by MTT assay; type: functional, organism-based; conditions: Orthopoxvirus vaccinia, Vero 76, 72 h
[2] = test system: Vesicular stomatitis virus; experiment: Antiviral activity against Vesicular stomatitis virus infected african green monkey Vero76 cells assessed as reduction of virus-induced plaque reduction after 3 days by MTT assay; type: functional, organism-based; conditions: Vero 76, 72 h
[3] = Selectivity index, ratio of CC50 for green monkey Vero76 cells to EC50 for HSV1; parameters: species or system Vero 76
Human alphaherpesvirus 1 = experiment: Antiviral activity against Human herpesvirus 1 infected African green monkey Vero76 cells assessed as reduction of virus-induced plaque reduction after 3 days by MTT assay; type: functional, organism-based; conditions: Human alphaherpesvirus 1, Vero 76, 72 h
[4] = Cytotoxicity against Chlorocebus aethiops (African green monkey) Vero76 cells after 48 to 120 hr by MTT assay; type: cell-based, Vero 76; conditions: chlorocebus sabaeus
Coxsackievirus B2 = experiment: Antiviral activity against Human coxsackievirus B2 infected African green monkey Vero76 cells assessed as reduction of virus-induced plaque reduction after 3 days by MTT assay; type: functional, organism-based; conditions: Enterovirus B, Vero 76, 72 h
Aspergillus niger = experiment: Antifungal activity against Aspergillus niger DSM 1988 after 24 to 48 hr by broth microdilution method; type: functional
[5] = test system: Mammalian orthoreovirus 1; experiment: Antiviral activity against Mammalian orthoreovirus 1 infected BHK21 cells assessed as inhibition of virus-induced cytopathogenicity after 3 to 4 days by MTT assay; type: functional, organism-based; conditions: Mammalian orthoreovirus 1, BHK-21
Yellow fever virus = experiment: Antiviral activity against Yellow fever virus infected BHK21 cells assessed as inhibition of virus-induced cytopathogenicity after 3 to 4 days by MTT assay; type: functional, organism-based; conditions: BHK-21
[6] = Cytotoxicity against Cricetinae BHK21 (hamster normal kidney fibroblast) cells after 48 to 120 hr by MTT assay; type: cell-based, Mesocricetus auratus, BHK-21; conditions: BHK21 cells (normal kidney fibroblasts)
[7] = test system: Bovine viral diarrhea virus 1; experiment: Antiviral activity against Bovine viral diarrhea virus 1 infected MDBK cells assessed as inhibition of virus-induced cytopathogenicity after 3 to 4 days by MTT assay; type: functional, organism-based; conditions: Bovine viral diarrhea virus isolates and strains
[8] = Cytotoxicity against Bos taurus MDBK cells after 48 to 120 hr by MTT assay; type: cell-based; conditions: cattle
[9] = test system: Human immunodeficiency virus 1; experiment: Antiviral activity against Human immunodeficiency virus 1 infected human MT4 cells assessed as inhibition of virus-induced cytopathogenicity after 4 days by MTT assay; type: functional, organism-based; conditions: Human immunodeficiency virus 1, MT4, 96 h
[10] = Selectivity index, ratio of CC50 for green monkey Vero76 cells to EC50 for Coxsackievirus B2; type: toxicity, cell-based, Vero 76; conditions: read-out: Ratio CC50/EC50
[11] = Selectivity index, ratio of CC50 for green monkey Vero76 cells to EC50 for Yellow fever virus; type: toxicity, cell-based, Vero 76; conditions: read-out: Ratio CC50/EC50

Structure (SMILES) | CC50 at 96 h [1] [µM] | MIC (Candida albicans) [µM] | MIC (Pseudomonas aeruginosa) [µM] | MIC (Staphylococcus aureus) [µM] | MIC (Aspergillus niger) [µM] | other results
O=C1C2=C(SCCS2)C(=O)N1CCCCN1CCN(c2ccccc2O)CC1 | > 100 |  |  |  |  | 
O=C1C2=C(SCCS2)C(=O)N1CCCCN1CCN(c2ncccn2)CC1 | > 100 |  |  |  |  | 
COc1ccccc1N1CCN(CCCCN2C(=O)C3=C(SCCS3)C2=O)CC1 | > 100 |  |  |  |  | 
O=C1C2=C(SCCS2)C(=O)N1CCCN1CCN(c2ccccc2O)CC1 | > 100 |  |  |  |  | 
COc1ccccc1N1CCN(CCCN2C(=O)C3=C(SCCS3)C2=O)CC1 | > 100 |  |  |  |  | 
O=C1C2=C(SCCS2)C(=O)N1CCCCN1CCN(Cc2ccccc2)CC1 | > 100 | > 100 | > 100 | > 100 | > 100 | EC50 (Poliovirus 1): > 100 µM; EC50 (Vaccinia virus): > 100 µM; EC50 [2]: > 100 µM; Ratio CC50/EC50 [3]: >3.45; EC50 (Human alphaherpesvirus 1): 29 µM; CC50 [4]: > 100 µM; EC50 (Coxsackievirus B2): > 100 µM; EC50 [5]: > 100 µM; EC50 (Yellow fever virus): > 100 µM; CC50 [6]: > 100 µM; EC50 [7]: > 100 µM; CC50 [8]: > 100 µM; EC50 [9]: > 100 µM
O=C1C2=C(SCCS2)C(=O)N1CCCCN1CCN(c2ccc(F)cc2)CC1 | > 100 | > 100 | > 100 | > 100 | > 100 | EC50 (Poliovirus 1): > 100 µM; EC50 (Vaccinia virus): > 100 µM; EC50 [2]: > 100 µM; EC50 (Human alphaherpesvirus 1): > 100 µM; selectivity ratio [10]: > 4.76; CC50 [4]: > 100 µM; EC50 (Coxsackievirus B2): 21 µM; EC50 [5]: > 100 µM; EC50 (Yellow fever virus): > 100 µM; CC50 [6]: > 100 µM; EC50 [7]: > 100 µM; CC50 [8]: > 100 µM; EC50 [9]: > 100 µM
O=C1C2=C(SCCS2)C(=O)N1CCCCN1CCN(c2ccccn2)CC1 | > 100 | > 100 | > 100 | > 100 | > 100 | EC50 (Poliovirus 1): > 100 µM; EC50 (Vaccinia virus): > 100 µM; EC50 [2]: > 100 µM; EC50 (Human alphaherpesvirus 1): > 100 µM; selectivity ratio [10]: > 3.12; CC50 [4]: > 100 µM; EC50 (Coxsackievirus B2): 32 µM; EC50 [5]: > 100 µM; EC50 (Yellow fever virus): > 100 µM; CC50 [6]: > 100 µM; EC50 [7]: > 100 µM; CC50 [8]: > 100 µM; EC50 [9]: > 100 µM
O=C1C2=C(SCCS2)C(=O)N1CCCN1CCN(c2ccccn2)CC1 | > 100 | > 100 | > 100 | > 100 | > 100 | 
O=C1C2=C(SCCS2)C(=O)N1CCCN1CCN(c2ccc(F)cc2)CC1 | > 100 | > 100 | > 100 | > 100 | > 100 | EC50 (Poliovirus 1): > 96 µM; EC50 (Vaccinia virus): > 96 µM; selectivity ratio [11]: > 1.92; EC50 [2]: > 96 µM; EC50 (Human alphaherpesvirus 1): > 96 µM; selectivity ratio [10]: > 4.8; CC50 [4]: 96 µM; EC50 (Coxsackievirus B2): 20 µM; EC50 [5]: > 100 µM; EC50 (Yellow fever virus): 52 µM; CC50 [6]: > 100 µM; EC50 [7]: > 100 µM; CC50 [8]: > 100 µM; EC50 [9]: > 100 µM
O=C1OC(=O)C2=C1SCCS2 |  | > 100 | > 100 | > 100 | > 100 | 
O=C1NC(=O)C2=C1SCCS2 | > 100 | > 100 | > 100 | > 100 | > 100 | 
CN(C)CC(O)CN1C(=O)C2=C(SCCS2)C1=O (configuration not stated) | > 100 | > 100 | > 100 | > 100 | > 100 | 
CCN(CC)CC(O)CN1C(=O)C2=C(SCCS2)C1=O (configuration not stated) | > 100 | > 100 | > 100 | > 100 | > 100 | 
CC(C)(C)NCC(O)CN1C(=O)C2=C(SCCS2)C1=O (configuration not stated) | > 100 | > 100 | > 100 | > 100 | > 100 | 
O=C1C2=C(SCCS2)C(=O)N1CC(O)CN1CCCCC1 (configuration not stated) | > 100 | > 100 | > 100 | > 100 | > 100 | 
CC1CCN(CC(O)CN2C(=O)C3=C(SCCS3)C2=O)CC1 (configuration not stated) | > 100 | > 100 | > 100 | > 100 | > 100 | 
O=C1C2=C(SCCS2)C(=O)N1CC(O)CN1CCN(c2ccccc2)CC1 (configuration not stated) | > 100 | > 100 | > 100 | > 100 | > 100 | 
O=C1C2=C(SCCS2)C(=O)N1CC(O)CN1CCN(c2ccc(F)cc2)CC1 (configuration not stated) | > 100 | > 100 | > 100 | > 100 | > 100 | EC50 (Poliovirus 1): > 100 µM; EC50 (Vaccinia virus): > 100 µM; selectivity ratio [11]: > 1.25; EC50 [2]: > 100 µM; EC50 (Human alphaherpesvirus 1): > 100 µM; CC50 [4]: > 100 µM; EC50 (Coxsackievirus B2): > 100 µM; EC50 [5]: > 100 µM; EC50 (Yellow fever virus): 80 µM; CC50 [6]: > 100 µM; EC50 [7]: > 100 µM; CC50 [8]: > 100 µM; EC50 [9]: > 100 µM
O=C1C2=C(SCCS2)C(=O)N1CC(O)CN1CCN(c2ccccn2)CC1 (configuration not stated) | > 100 | > 100 | > 100 | > 100 | > 100 | 
COc1ccccc1N1CCN(CC(O)CN2C(=O)C3=C(SCCS3)C2=O)CC1 (configuration not stated) | > 100 | > 100 | > 100 | > 100 | > 100 | EC50 (Poliovirus 1): > 100 µM; EC50 (Vaccinia virus): > 100 µM; selectivity ratio [11]: > 1.33; EC50 [2]: > 100 µM; EC50 (Human alphaherpesvirus 1): > 100 µM; CC50 [4]: > 100 µM; EC50 (Coxsackievirus B2): > 100 µM; EC50 [5]: > 100 µM; EC50 (Yellow fever virus): 75 µM; CC50 [6]: > 100 µM; EC50 [7]: > 100 µM; CC50 [8]: > 100 µM; EC50 [9]: > 100 µM
C#C[C@@]1(O)[C@H](O)[C@@H](CO)O[C@H]1n1ccc(N)nc1=O [2'-ETHYNYL-D-CYTIDINE] |  |  |  |  |  | EC50 (Poliovirus 1): 18 µM; EC50 (Coxsackievirus B2): 23 µM
O=C(O)c1cn(C2CC2)c2cc(N3CCNCC3)c(F)cc2c1=O [CIPROFLOXACIN] |  |  | 0.8 (≈ 0.265 µg/mL) | 4 (≈ 1.33 µg/mL) |  | 
Clc1ccc(COC(Cn2ccnc2)c2ccc(Cl)cc2Cl)c(Cl)c1 (configuration not stated) [MICONAZOLE] |  | 0.8 (≈ 0.333 µg/mL) |  |  | 20 (≈ 8.32 µg/mL) | 
COc1c(C)c2c(c(O)c1C/C=C(\C)CCC(=O)O)C(=O)OC2 [MYCOPHENOLIC ACID] |  |  |  |  |  | EC50 (Vaccinia virus): 1.8 µM
Cc1cn([C@H]2C[C@H](N=[N+]=[N-])[C@@H](CO)O2)c(=O)[nH]c1=O [ZIDOVUDINE] | 50 |  |  |  |  | EC50 [9]: 0.01 µM
